Key:
[1] = tested on: rabbit serum obtained by immunizing a rabbit with the SARS-CoV strain Frankfurt 1; assay type: binding; parameters: Binding of a rabbit serum to linear peptides / Binding of a rabbit serum to looped peptides / Rabbit serum linear peptides / Rabbit serum looped peptides / Binding of a rabbit serum to linear peptides of protein N of SARS-CoV Urbani (Rabbit serum linear peptides) / Binding of a rabbit serum to looped/cyclic peptides of protein N of SARS-CoV Urbani (Rabbit serum looped peptides): unit not given here
[2] = tested on: antibodies in sera from SARS patients (sera 1a, 1b, 2, 6, 37, 62, London, SARS-yellow, SARS-green); assay type: binding, human; parameters: Binding of serum 6 to linear peptides of protein X1 of SARS-CoV Urbani / Binding of serum 37 to linear peptides of protein X1 of SARS-CoV Urbani / Binding of serum 6 to looped/cyclic peptide (PEPSCAN-ELISA) / Binding of serum 37 to looped/cyclic peptide (PEPSCAN-ELISA) / Binding of serum 37 to looped/cyclic peptides of protein X1 of SARS-CoV Urbani / Binding of serum 6 to linear peptides of protein X2 / Binding of serum 37 to linear peptides of protein X2 / Binding of serum 37 to looped/cyclic peptides of protein X2 of SARS-CoV Urbani / Binding of serum 6 to linear peptides of protein M of SARS-CoV Urbani / Binding of serum 37 to linear peptides of protein M of SARS-CoV Urbani / Binding of serum 6 to looped/cyclic peptides of protein M of SARS-CoV Urbani / Binding of serum 37 to looped/cyclic peptides of protein M of SARS-CoV Urbani / Binding of serum 6 to linear peptides of protein X3 of SARS-CoV Urbani / Binding of serum 37 to linear peptides of protein X3 of SARS-CoV Urbani / Binding of serum 37 to looped/cyclic peptides of protein X3 of SARS-CoV Urbani / Binding of serum 6 to linear peptides of protein X4 of SARS-CoV Urbani / Binding of serum 37 to linear peptides of protein X4 of SARS-CoV Urbani / Binding of serum 37 to looped/cyclic peptides of protein X4 of SARS-CoV Urbani / Binding of serum 6 to linear peptides of protein X5 of SARS-CoV Urbani / Binding of serum 37 to linear peptides of protein X5 of SARS-CoV Urbani / Binding of serum 37 to looped/cyclic peptides of protein X5 of SARS-CoV Urbani / Binding of serum 6 to linear peptides of protein N of SARS-CoV Urbani / Binding of serum 37 to linear peptides of protein N of SARS-CoV Urbani / Binding of serum 6 to linear peptide (PEPSCAN-ELISA) / Binding of serum 1a to looped/cyclic peptides of protein N of SARS-CoV Urbani / Binding of serum 1b to looped/cyclic peptides of protein N of SARS-CoV Urbani / Binding of serum 2 to looped/cyclic peptides of protein N of SARS-CoV Urbani / Binding of serum 6 to looped/cyclic peptides of protein N of SARS-CoV Urbani / Binding of serum 37 to looped/cyclic peptides of protein N of SARS-CoV Urbani / Binding of serum 62 to looped/cyclic peptides of protein N of SARS-CoV Urbani / Binding of serum London to looped/cyclic peptides of protein N of SARS-CoV Urbani / Binding of serum SARS-green to looped/cyclic peptides of protein N of SARS-CoV Urbani: unit not given here
[3] = tested on: control sera (pooled serum of ten healthy LUMC hospital workers; commercial negative donor pooled serum from the Dutch bloodbank); assay type: binding, human; parameters: Binding of Control serum LUMC to linear peptides / Binding of Control serum Blood-bank to linear peptides / Binding of Control serum LUMC to looped peptides / Binding of Control Serum Blood-Bank to Looped peptides / Binding of Control serum LUMC to linear peptides of the protein M of SARS-CoV Urbani / Binding of Control serum Blood-bank to linear peptides of the protein M of SARS-CoV Urbani / Binding of Control serum LUMC to looped peptides of the protein M of SARS-CoV Urbani / Binding of Control Serum Blood-Bank to Looped peptides of the protein M of SARS-CoV Urbani: unit not given here

ITVATSRTLSYYKLG
Rabbit serum linear peptides [1]: 0.2 | Rabbit serum looped peptides [1]: 0.4 | Binding of serum 1a to linear peptides of protein M of SARS-CoV Urbani [2]: 0.6 | Binding of serum 1a to looped/cyclic peptides of protein M of SARS-CoV Urbani [2]: 1.0 | Binding of serum 1b to linear peptides of protein M of SARS-CoV Urbani [2]: 0.4 | Binding of serum 1b to looped/cyclic peptides of protein M of SARS-CoV Urbani [2]: 0.6 | Binding of serum 2 to linear peptides of protein M of SARS-CoV Urbani [2]: 0.5 | Binding of serum 2 to looped/cyclic peptides of protein M of SARS-CoV Urbani [2]: 0.8 | Binding of serum 6 to linear peptides of protein M of SARS-CoV Urbani [2]: 0.5 | Binding of serum 6 to looped/cyclic peptides of protein M of SARS-CoV Urbani [2]: 1.1 | Binding of serum 37 to linear peptides of protein M of SARS-CoV Urbani [2]: 0.4 | Binding of serum 37 to looped/cyclic peptides of protein M of SARS-CoV Urbani [2]: 0.3 | Binding of serum 62 to linear peptides of protein M of SARS-CoV Urbani [2]: 0.4 | Binding of serum 62 to looped/cyclic peptides of protein M of SARS-CoV Urbani [2]: 0.6 | Binding of serum London to linear peptides of protein M of SARS-CoV Urbani [2]: 0.3 | Binding of serum London to looped/cyclic peptides of protein M of SARS-CoV Urbani [2]: 0.4 | Binding of serum SARS-green to linear peptides of protein M of SARS-CoV Urbani [2]: 0.5 | Binding of serum SARS-green to looped/cyclic peptides of protein M of SARS-CoV Urbani [2]: 0.4 | Binding of serum SARS-yellow to linear peptides of protein M of SARS-CoV Urbani [2]: 0.2 | Binding of serum SARS-yellow to looped/cyclic peptides of protein M of SARS-CoV Urbani [2]: 0.4 | Binding of Control Serum Blood-Bank to Looped peptides of the protein M of SARS-CoV Urbani [3]: 0.5 | Binding of Control serum Blood-bank to linear peptides of the protein M of SARS-CoV Urbani [3]: 0.8 | Binding of Control serum LUMC to linear peptides of the protein M of SARS-CoV Urbani [3]: 0.7 | Binding of Control serum LUMC to looped peptides of the protein M of SARS-CoV Urbani [3]: 0.6

IVFTSCELYHYQECV
Rabbit serum linear peptides [1]: 0.4 | Rabbit serum looped peptides [1]: 0.4 | Binding of serum 1a to linear peptides of protein X4 of SARS-CoV Urbani [2]: 0.8 | Binding of serum 1a to looped/cyclic peptides of protein X4 of SARS-CoV Urbani [2]: 0.9 | Binding of serum 1b to linear peptides of protein X4 of SARS-CoV Urbani [2]: 0.9 | Binding of serum 1b to looped/cyclic peptides of protein X4 of SARS-CoV Urbani [2]: 0.8 | Binding of serum 2 to linear peptides of protein X4 of SARS-CoV Urbani [2]: 0.6 | Binding of serum 2 to looped/cyclic peptides of protein X4 of SARS-CoV Urbani [2]: 0.8 | Binding of serum 6 to linear peptides of protein X4 of SARS-CoV Urbani [2]: 0.8 | Binding of serum 6 to looped/cyclic peptides of protein X4 of SARS-CoV Urbani [2]: 0.6 | Binding of serum 37 to linear peptides of protein X4 of SARS-CoV Urbani [2]: 1.0 | Binding of serum 37 to looped/cyclic peptides of protein X4 of SARS-CoV Urbani [2]: 1.0 | Binding of serum 62 to linear peptides of protein X4 of SARS-CoV Urbani [2]: 1.0 | Binding of serum 62 to looped/cyclic peptides of protein X4 of SARS-CoV Urbani [2]: 0.8 | Binding of serum London to linear peptides of protein X4 of SARS-CoV Urbani [2]: 0.8 | Binding of serum London to looped/cyclic peptides of protein X4 of SARS-CoV Urbani [2]: 0.3 | Binding of serum SARS-green to linear peptides of protein X4 of SARS-CoV Urbani [2]: 0.9 | Binding of serum SARS-green to looped/cyclic peptides of protein X4 of SARS-CoV Urbani [2]: 0.8 | Binding of serum SARS-yellow to linear peptides of protein X4 of SARS-CoV Urbani [2]: 0.4 | Binding of serum SARS-yellow to looped/cyclic peptides of protein X4 of SARS-CoV Urbani [2]: 0.6 | Binding of Control Serum Blood-Bank to Looped peptides [3]: 0.8 | Binding of Control serum Blood-bank to linear peptides [3]: 0.8 | Binding of Control serum LUMC to linear peptides [3]: 0.8 | Binding of Control serum LUMC to looped peptides [3]: 0.9

IVTRPLMESELVIGA
Rabbit serum linear peptides [1]: 0.1 | Rabbit serum looped peptides [1]: 0.4 | Binding of serum 1a to linear peptides of protein M of SARS-CoV Urbani [2]: 0.8 | Binding of serum 1b to linear peptides of protein M of SARS-CoV Urbani [2]: 0.7 | Binding of serum 2 to linear peptides of protein M of SARS-CoV Urbani [2]: 0.6 | Binding of serum 6 to linear peptides of protein M of SARS-CoV Urbani [2]: 0.4 | Binding of serum 37 to linear peptides of protein M of SARS-CoV Urbani [2]: 0.6 | Binding of serum 62 to linear peptides of protein M of SARS-CoV Urbani [2]: 0.6 | Binding of serum London to linear peptides of protein M of SARS-CoV Urbani [2]: 0.3 | Binding of serum SARS-green to linear peptides of protein M of SARS-CoV Urbani [2]: 0.6 | Binding of serum SARS-yellow to linear peptides of protein M of SARS-CoV Urbani [2]: 0.5 | Recognition of the peptide by sera of SARS-CoV infected individuals, and form (linear, looped/cyclic) in which it is recognized [2]: recognized in looped/cyclic form | Binding of Control Serum Blood-Bank to Looped peptides of the protein M of SARS-CoV Urbani [3]: 0.9 | Binding of Control serum Blood-bank to linear peptides of the protein M of SARS-CoV Urbani [3]: 0.7 | Binding of Control serum LUMC to linear peptides of the protein M of SARS-CoV Urbani [3]: 0.8 | Binding of Control serum LUMC to looped peptides of the protein M of SARS-CoV Urbani [3]: 1.0

IVVTEGDGISTPKLK
Binding of a rabbit serum to linear peptides [1]: 0.1 | Binding of a rabbit serum to looped peptides [1]: 0.4 | Binding of serum 1a to linear peptides of protein X1 of SARS-CoV Urbani [2]: 0.5 | Binding of serum 1a to looped/cyclic peptides of protein X1 of SARS-CoV Urbani [2]: 0.3 | Binding of serum 1b to linear peptides of protein X1 of SARS-CoV Urbani [2]: 0.5 | Binding of serum 1b to looped/cyclic peptides of protein X1 of SARS-CoV Urbani [2]: 0.2 | Binding of serum 2 to linear peptides of protein X1 of SARS-CoV Urbani [2]: 0.3 | Binding of serum 2 to looped/cyclic peptides of protein X1 of SARS-CoV Urbani [2]: 0.1 | Binding of serum 6 to linear peptides of protein X1 of SARS-CoV Urbani [2]: 0.4 | Binding of serum 6 to looped/cyclic peptides of protein X1 of SARS-CoV Urbani [2]: 0.1 | Binding of serum 37 to linear peptides of protein X1 of SARS-CoV Urbani [2]: 0.5 | Binding of serum 37 to looped/cyclic peptides of protein X1 of SARS-CoV Urbani [2]: 0.2 | Binding of serum 62 to linear peptides of protein X1 of SARS-CoV Urbani [2]: 0.3 | Binding of serum 62 to looped/cyclic peptides of protein X1 of SARS-CoV Urbani [2]: 0.3 | Binding of serum London to linear peptides of protein X1 of SARS-CoV Urbani [2]: 0.2 | Binding of serum London to looped/cyclic peptides of protein X1 of SARS-CoV Urbani [2]: 0.1 | Binding of serum SARS-green to linear peptides of protein X1 of SARS-CoV Urbani [2]: 0.1 | Binding of serum SARS-green to looped/cyclic peptides of protein X1 of SARS-CoV Urbani [2]: 0.0 | Binding of serum SARS-yellow to linear peptides of protein X1 of SARS-CoV Urbani [2]: 0.1 | Binding of serum SARS-yellow to looped/cyclic peptides of protein X1 of SARS-CoV Urbani [2]: 0.1 | Binding of Control Serum Blood-Bank to Looped peptides [3]: 0.3 | Binding of Control serum Blood-bank to linear peptides [3]: 0.3 | Binding of Control serum LUMC to linear peptides [3]: 0.3 | Binding of Control serum LUMC to looped peptides [3]: 0.3

From US20070128217A1 (priority 2003, published 2007)
